Assay results reported in publication PMC3399817 (PLoS ONE, 2012).

Assays:
Test in all cases: KINOMEscan
Type in all cases: binding
RET(V804L) = target: T1, RET(V804L) (Homo sapiens, UniProt P07949, V804L); conditions: 1 uM
T1 construct: purchased Ambit KINOMEscan (DiscoverX)
In short: (§1)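 Test concentration 1 μM for all compounds. Values reflect interference with substrate binding, not catalytic turnover.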

[1] = target: T2, EGFR(L747-S752del, P753S) (Homo sapiens, UniProt P00533, DEL747-752/P753S); conditions: 1 uM
T2 construct: purchased Ambit KINOMEscan (DiscoverX)
In short: as §1

CDK5 = target: T3, CDK5 (Homo sapiens, UniProt Q00535); conditions: CDK5, 1 uM
T3 construct: purchased Ambit KINOMEscan (DiscoverX)
In short: as §1

FLT3(D835Y) = target: T4, FLT3(D835Y) (Homo sapiens, UniProt P36888, D835Y); conditions: 1 uM
T4 construct: purchased Ambit KINOMEscan (DiscoverX)
In short: as §1

IRAK4 = target: T5, IRAK4 (Homo sapiens, UniProt Q9NWZ3); conditions: IRAK4, 1 uM
T5 construct: purchased Ambit KINOMEscan (DiscoverX)
In short: as §1

VRK2 = target: T6, VRK2 (Homo sapiens, UniProt Q86Y07); conditions: VRK2, 1 uM
T6 construct: purchased Ambit KINOMEscan (DiscoverX)
In short: as §1

TLK2 = target: T7, TLK2 (Homo sapiens, UniProt Q86UE8); conditions: TLK2, 1 uM
T7 construct: purchased Ambit KINOMEscan (DiscoverX)
In short: as §1

EPHA7 = target: T8, EPHA7 (Homo sapiens, UniProt Q15375); conditions: EPHA7, 1 uM
T8 construct: purchased Ambit KINOMEscan (DiscoverX)
In short: as §1

TRKA = target: T9, TRKA (Homo sapiens, UniProt P04629); conditions: 1 uM
T9 construct: purchased Ambit KINOMEscan (DiscoverX)
In short: as §1

[2] = target: T10, RPS6KA6(Kin.Dom.1-N-terminal) (Homo sapiens, UniProt Q9UK32); conditions: 1 uM
T10 construct: RPS6KA6(Kin.Dom.1-N-terminal); purchased Ambit KINOMEscan (DiscoverX)
In short: as §1

S6K1 = target: T11, S6K1 (Homo sapiens, UniProt P23443); conditions: S6K1, 1 uM
T11 construct: purchased Ambit KINOMEscan (DiscoverX)
In short: as §1

[3] = target: T12, ABL1(F317I)-phosphorylated (Homo sapiens, UniProt P00519, F317I); conditions: 1 uM
T12 construct: purchased Ambit KINOMEscan (DiscoverX)
In short: as §1

EGFR(T790M) = target: T13, EGFR(T790M) (Homo sapiens, UniProt P00533, T790M); conditions: 1 uM
T13 construct: purchased Ambit KINOMEscan (DiscoverX)
In short: as §1

SGK3 = target: T14, SGK3 (Homo sapiens, UniProt Q96BR1); conditions: SGK3, 1 uM
T14 construct: purchased Ambit KINOMEscan (DiscoverX)
In short: as §1

RET = target: T15, RET (Homo sapiens, UniProt P07949); conditions: 1 uM
T15 construct: purchased Ambit KINOMEscan (DiscoverX)
In short: as §1

SNRK = target: T16, SNRK (Homo sapiens, UniProt Q9NRH2); conditions: 1 uM
T16 construct: purchased Ambit KINOMEscan (DiscoverX)
In short: as §1

PIK3CA(I800L) = target: T17, PIK3CA(I800L) (Homo sapiens, UniProt P42336, I800L); conditions: 1 uM
T17 construct: purchased Ambit KINOMEscan (DiscoverX)
In short: as §1

p38-delta = target: T18, p38-delta (Homo sapiens, UniProt O15264); conditions: 1 uM
T18 construct: purchased Ambit KINOMEscan (DiscoverX)
In short: as §1

EIF2AK1 = target: T19, EIF2AK1 (Homo sapiens, UniProt Q9BQI3); conditions: EIF2AK1, 1 uM
T19 construct: purchased Ambit KINOMEscan (DiscoverX)
In short: as §1

MKK7 = target: T20, MKK7 (Homo sapiens, UniProt O14733); conditions: MKK7, 1 uM
T20 construct: purchased Ambit KINOMEscan (DiscoverX)
In short: as §1

EGFR(L861Q) = target: T21, EGFR(L861Q) (Homo sapiens, UniProt P00533, L861Q); conditions: 1 uM
T21 construct: purchased Ambit KINOMEscan (DiscoverX)
In short: as §1

[4] = target: T22, EGFR(L747-E749del, A750P) (Homo sapiens, UniProt P00533, A750P/DEL747-749); conditions: 1 uM
T22 construct: purchased Ambit KINOMEscan (DiscoverX)
In short: as §1

NEK4 = target: T23, NEK4 (Homo sapiens, UniProt P51957); conditions: NEK4, 1 uM
T23 construct: purchased Ambit KINOMEscan (DiscoverX)
In short: as §1

CLK1 = target: T24, CLK1 (Homo sapiens, UniProt P49759); conditions: CLK1, 1 uM
T24 construct: purchased Ambit KINOMEscan (DiscoverX)
In short: as §1

PFCDPK1(P.falciparum) = target: T25, PFCDPK1(P.falciparum) (Plasmodium falciparum, UniProt P62344); conditions: 1 uM
T25 construct: purchased Ambit KINOMEscan (DiscoverX)
In short: as §1

FLT3(R834Q) = target: T26, FLT3(R834Q) (Homo sapiens, UniProt P36888, R834Q); conditions: 1 uM
T26 construct: purchased Ambit KINOMEscan (DiscoverX)
In short: as §1

EGFR(L858R,T790M) = target: T27, EGFR(L858R,T790M) (Homo sapiens, UniProt P00533, L858R/T790M); conditions: 1 uM
T27 construct: purchased Ambit KINOMEscan (DiscoverX)
In short: as §1

EGFR(S752-I759del) = target: T28, EGFR(S752-I759del) (Homo sapiens, UniProt P00533, DEL752-759); conditions: 1 uM
T28 construct: purchased Ambit KINOMEscan (DiscoverX)
In short: as §1

CASK = target: T29, CASK (Homo sapiens, UniProt O14936); conditions: 1 uM
T29 construct: purchased Ambit KINOMEscan (DiscoverX)
In short: as §1

CDK4-cyclinD1 = target: T30, CDK4-cyclinD1 (Homo sapiens, UniProt P11802); conditions: CDK4-cyclinD1, 1 uM
T30 construct: purchased Ambit KINOMEscan (DiscoverX)
In short: as §1

RET(V804M) = target: T31, RET(V804M) (Homo sapiens, UniProt P07949, V804M); conditions: 1 uM
T31 construct: purchased Ambit KINOMEscan (DiscoverX)
In short: as §1

LRRK2(G2019S) = target: T32, LRRK2(G2019S) (Homo sapiens, UniProt Q5S007, G2019S); conditions: 1 uM
T32 construct: purchased Ambit KINOMEscan (DiscoverX)
In short: as §1

BLK = target: T33, BLK (Homo sapiens, UniProt P51451); conditions: 1 uM
T33 construct: purchased Ambit KINOMEscan (DiscoverX)
In short: as §1

RET(M918T) = target: T34, RET(M918T) (Homo sapiens, UniProt P07949, M918T); conditions: 1 uM
T34 construct: purchased Ambit KINOMEscan (DiscoverX)
In short: as §1

PIK3CA(H1047L) = target: T35, PIK3CA(H1047L) (Homo sapiens, UniProt P42336, H1047L); conditions: 1 uM
T35 construct: purchased Ambit KINOMEscan (DiscoverX)
In short: as §1

KIT(D816H) = target: T36, KIT(D816H) (Homo sapiens, UniProt P10721, D816H); conditions: 1 uM
T36 construct: purchased Ambit KINOMEscan (DiscoverX)
In short: as §1

PFPK5(P.falciparum) = target: T37, PFPK5(P.falciparum) (Plasmodium falciparum, UniProt P61075); conditions: 1 uM
T37 construct: purchased Ambit KINOMEscan (DiscoverX)
In short: as §1

T3 sequence (Q00535 whole entry): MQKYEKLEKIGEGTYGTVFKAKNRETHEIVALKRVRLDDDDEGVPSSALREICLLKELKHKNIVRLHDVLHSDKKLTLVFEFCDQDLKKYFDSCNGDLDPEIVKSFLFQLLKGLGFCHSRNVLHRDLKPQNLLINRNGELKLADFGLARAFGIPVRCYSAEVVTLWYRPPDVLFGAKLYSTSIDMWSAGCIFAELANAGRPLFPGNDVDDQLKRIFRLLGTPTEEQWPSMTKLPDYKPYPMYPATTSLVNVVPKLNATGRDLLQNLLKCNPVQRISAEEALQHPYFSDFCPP
T13 sequence (P00533 25-1210 T790M): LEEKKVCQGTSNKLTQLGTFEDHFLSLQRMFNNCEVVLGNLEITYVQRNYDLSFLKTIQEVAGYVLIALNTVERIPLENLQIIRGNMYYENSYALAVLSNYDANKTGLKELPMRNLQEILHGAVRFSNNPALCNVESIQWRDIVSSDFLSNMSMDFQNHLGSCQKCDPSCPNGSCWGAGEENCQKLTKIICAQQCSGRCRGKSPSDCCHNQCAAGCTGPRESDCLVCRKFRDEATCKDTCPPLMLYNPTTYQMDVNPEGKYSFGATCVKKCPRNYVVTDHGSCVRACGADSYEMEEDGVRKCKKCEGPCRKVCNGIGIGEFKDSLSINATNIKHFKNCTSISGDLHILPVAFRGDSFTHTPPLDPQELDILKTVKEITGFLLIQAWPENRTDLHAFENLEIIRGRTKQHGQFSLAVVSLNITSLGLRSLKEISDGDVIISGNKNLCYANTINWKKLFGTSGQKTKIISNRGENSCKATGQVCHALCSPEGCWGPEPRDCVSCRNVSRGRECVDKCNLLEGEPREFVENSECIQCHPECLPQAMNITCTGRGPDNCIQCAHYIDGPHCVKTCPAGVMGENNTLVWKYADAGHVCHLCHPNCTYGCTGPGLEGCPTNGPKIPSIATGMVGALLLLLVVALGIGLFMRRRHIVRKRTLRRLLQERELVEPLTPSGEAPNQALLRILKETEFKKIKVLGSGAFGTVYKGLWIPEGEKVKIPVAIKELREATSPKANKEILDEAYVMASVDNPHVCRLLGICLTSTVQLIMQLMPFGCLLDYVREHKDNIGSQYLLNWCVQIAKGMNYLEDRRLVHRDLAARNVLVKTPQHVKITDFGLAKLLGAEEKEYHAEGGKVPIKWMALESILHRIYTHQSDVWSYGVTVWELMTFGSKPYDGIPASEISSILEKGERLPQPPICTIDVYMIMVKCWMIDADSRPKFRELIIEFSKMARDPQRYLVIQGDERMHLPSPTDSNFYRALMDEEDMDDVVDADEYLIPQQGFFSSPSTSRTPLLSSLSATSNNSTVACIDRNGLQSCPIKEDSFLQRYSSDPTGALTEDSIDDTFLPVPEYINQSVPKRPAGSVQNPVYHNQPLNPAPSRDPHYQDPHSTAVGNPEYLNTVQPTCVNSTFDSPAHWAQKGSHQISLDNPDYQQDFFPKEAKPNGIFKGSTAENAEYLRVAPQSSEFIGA
T32 sequence (Q5S007 whole entry G2019S): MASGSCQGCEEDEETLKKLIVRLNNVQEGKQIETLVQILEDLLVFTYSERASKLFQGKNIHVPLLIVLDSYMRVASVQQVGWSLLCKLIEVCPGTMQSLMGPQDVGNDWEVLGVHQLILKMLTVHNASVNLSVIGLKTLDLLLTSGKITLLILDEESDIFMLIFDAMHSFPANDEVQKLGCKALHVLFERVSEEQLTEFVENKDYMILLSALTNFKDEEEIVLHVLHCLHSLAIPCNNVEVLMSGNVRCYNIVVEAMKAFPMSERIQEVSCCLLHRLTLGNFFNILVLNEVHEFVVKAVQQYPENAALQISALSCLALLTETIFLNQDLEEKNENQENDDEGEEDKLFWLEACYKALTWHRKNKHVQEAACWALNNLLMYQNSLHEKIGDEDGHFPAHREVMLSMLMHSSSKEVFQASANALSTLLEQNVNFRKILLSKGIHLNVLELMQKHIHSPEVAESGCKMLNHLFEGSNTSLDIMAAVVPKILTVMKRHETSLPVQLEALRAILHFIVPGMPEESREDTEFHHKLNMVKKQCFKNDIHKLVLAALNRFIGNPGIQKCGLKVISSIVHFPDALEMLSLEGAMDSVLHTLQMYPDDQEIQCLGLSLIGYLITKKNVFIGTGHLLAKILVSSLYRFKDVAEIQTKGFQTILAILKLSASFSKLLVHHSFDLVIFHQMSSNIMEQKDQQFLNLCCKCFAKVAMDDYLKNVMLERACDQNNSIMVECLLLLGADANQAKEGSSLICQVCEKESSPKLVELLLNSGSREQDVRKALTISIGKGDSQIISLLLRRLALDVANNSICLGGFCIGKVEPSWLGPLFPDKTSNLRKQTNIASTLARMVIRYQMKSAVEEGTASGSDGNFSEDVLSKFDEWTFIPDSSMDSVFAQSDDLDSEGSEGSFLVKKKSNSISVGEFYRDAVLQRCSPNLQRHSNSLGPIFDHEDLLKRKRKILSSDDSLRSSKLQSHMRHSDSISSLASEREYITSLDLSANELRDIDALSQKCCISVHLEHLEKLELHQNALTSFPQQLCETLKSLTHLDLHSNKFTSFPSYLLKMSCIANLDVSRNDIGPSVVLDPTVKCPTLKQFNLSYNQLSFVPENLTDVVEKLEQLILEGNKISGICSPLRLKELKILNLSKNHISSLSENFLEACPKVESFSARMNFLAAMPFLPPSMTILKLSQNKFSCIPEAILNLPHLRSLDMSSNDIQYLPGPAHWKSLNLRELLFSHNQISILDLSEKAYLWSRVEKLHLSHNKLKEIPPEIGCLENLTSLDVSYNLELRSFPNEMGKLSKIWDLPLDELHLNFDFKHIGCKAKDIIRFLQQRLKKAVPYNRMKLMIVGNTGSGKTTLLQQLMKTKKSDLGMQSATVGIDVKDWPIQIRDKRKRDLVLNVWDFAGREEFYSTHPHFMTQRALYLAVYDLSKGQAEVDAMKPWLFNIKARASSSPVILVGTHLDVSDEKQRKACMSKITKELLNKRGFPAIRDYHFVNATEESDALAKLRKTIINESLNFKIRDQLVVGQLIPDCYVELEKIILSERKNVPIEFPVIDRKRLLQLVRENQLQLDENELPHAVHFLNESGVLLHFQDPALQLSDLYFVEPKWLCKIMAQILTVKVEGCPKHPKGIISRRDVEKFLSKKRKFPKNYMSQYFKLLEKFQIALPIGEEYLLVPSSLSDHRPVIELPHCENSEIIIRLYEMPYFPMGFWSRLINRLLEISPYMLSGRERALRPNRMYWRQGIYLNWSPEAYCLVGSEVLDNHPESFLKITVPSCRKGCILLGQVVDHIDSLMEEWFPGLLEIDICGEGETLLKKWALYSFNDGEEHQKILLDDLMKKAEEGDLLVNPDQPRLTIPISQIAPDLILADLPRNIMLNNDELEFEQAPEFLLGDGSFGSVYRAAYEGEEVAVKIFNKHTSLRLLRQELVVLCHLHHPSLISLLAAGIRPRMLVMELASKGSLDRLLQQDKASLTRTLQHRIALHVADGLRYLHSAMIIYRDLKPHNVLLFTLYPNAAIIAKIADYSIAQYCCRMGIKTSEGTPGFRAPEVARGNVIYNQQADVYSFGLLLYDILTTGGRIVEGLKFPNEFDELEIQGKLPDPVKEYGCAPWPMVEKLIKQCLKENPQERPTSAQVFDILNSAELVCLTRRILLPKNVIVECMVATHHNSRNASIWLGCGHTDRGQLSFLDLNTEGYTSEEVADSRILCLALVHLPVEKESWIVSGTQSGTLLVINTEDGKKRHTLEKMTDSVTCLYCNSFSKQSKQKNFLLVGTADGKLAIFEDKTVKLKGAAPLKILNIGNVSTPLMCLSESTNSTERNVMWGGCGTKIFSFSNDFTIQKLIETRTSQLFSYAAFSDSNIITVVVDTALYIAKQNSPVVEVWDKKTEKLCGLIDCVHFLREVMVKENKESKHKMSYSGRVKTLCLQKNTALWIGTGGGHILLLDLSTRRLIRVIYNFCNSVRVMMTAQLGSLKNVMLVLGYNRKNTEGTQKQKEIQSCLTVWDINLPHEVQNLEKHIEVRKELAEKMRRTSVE
T30 sequence (P11802 whole entry): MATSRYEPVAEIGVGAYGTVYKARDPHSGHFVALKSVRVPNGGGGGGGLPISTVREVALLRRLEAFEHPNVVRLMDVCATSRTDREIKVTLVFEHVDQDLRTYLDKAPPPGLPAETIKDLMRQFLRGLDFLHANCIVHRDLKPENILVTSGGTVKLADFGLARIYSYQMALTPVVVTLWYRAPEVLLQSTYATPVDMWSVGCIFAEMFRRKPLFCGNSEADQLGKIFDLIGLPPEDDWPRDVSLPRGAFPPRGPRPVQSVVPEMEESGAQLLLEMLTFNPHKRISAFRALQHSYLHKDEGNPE
T30 sequence (P24385 whole entry partner): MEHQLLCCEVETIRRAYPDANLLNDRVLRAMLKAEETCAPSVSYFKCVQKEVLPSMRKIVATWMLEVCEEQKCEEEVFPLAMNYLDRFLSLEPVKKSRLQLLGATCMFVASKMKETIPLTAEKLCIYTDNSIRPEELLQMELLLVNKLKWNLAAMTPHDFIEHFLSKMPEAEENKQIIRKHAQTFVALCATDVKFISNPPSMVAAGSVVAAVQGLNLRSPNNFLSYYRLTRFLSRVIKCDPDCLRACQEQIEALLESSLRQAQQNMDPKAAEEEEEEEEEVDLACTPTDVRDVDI
T20 sequence (O14733 whole entry): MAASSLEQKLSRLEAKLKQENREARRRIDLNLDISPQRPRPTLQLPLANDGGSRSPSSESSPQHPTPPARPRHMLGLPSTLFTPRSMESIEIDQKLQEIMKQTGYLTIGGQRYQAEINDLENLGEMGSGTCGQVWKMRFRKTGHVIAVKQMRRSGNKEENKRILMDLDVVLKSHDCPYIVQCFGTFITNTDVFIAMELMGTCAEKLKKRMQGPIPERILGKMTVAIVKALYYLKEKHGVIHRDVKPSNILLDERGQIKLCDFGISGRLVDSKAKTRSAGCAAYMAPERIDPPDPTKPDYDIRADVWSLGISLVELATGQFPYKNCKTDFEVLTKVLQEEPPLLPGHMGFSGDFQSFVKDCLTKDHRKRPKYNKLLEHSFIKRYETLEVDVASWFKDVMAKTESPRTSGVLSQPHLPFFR

COc1ccccc1Nc1nc(-c2ccc(OC)c(OC)c2)cc2nccn12 [BAY derivative 6]
% binding compared to no inhibitor control (RET(V804L)): 95%
% binding compared to no inhibitor control [1]: 76%
% binding compared to no inhibitor control (CDK5): 100%
% binding compared to no inhibitor control (FLT3(D835Y)): 50%
% binding compared to no inhibitor control (IRAK4): 100%
% binding compared to no inhibitor control (VRK2): 88%
% binding compared to no inhibitor control (TLK2): 100%
% binding compared to no inhibitor control (EPHA7): 100%
% binding compared to no inhibitor control (TRKA): 98%
% binding compared to no inhibitor control [2]: 70%
% binding compared to no inhibitor control (S6K1): 84%
% binding compared to no inhibitor control [3]: 86%
% binding compared to no inhibitor control (EGFR(T790M)): 48%
% binding compared to no inhibitor control (SGK3): 100%
% binding compared to no inhibitor control (RET): 100%
% binding compared to no inhibitor control (SNRK): 94%
% binding compared to no inhibitor control (PIK3CA(I800L)): 100%
% binding compared to no inhibitor control (p38-delta): 100%
% binding compared to no inhibitor control (EIF2AK1): 88%
% binding compared to no inhibitor control (MKK7): 86%
% binding compared to no inhibitor control (EGFR(L861Q)): 68%
% binding compared to no inhibitor control [4]: 74%
% binding compared to no inhibitor control (NEK4): 85%
% binding compared to no inhibitor control (CLK1): 100%
% binding compared to no inhibitor control (PFCDPK1(P.falciparum)): 67%
% binding compared to no inhibitor control (FLT3(R834Q)): 100%
% binding compared to no inhibitor control (EGFR(L858R,T790M)): 85%
% binding compared to no inhibitor control (EGFR(S752-I759del)): 72%
% binding compared to no inhibitor control (CASK): 100%
% binding compared to no inhibitor control (CDK4-cyclinD1): 100%
% binding compared to no inhibitor control (RET(V804M)): 94%
% binding compared to no inhibitor control (LRRK2(G2019S)): 92%
% binding compared to no inhibitor control (BLK): 43%
% binding compared to no inhibitor control (RET(M918T)): 72%
% binding compared to no inhibitor control (PIK3CA(H1047L)): 100%
% binding compared to no inhibitor control (KIT(D816H)): 61%
% binding compared to no inhibitor control (PFPK5(P.falciparum)): 100%
